Marks after values point to notes of the source that are not given here. Non-standard residues stand in square brackets, D forms with d. Residues, ends and D or L forms follow the SMILES beside them. Lys(Thioacetyl) = CC(=S)NCCCC[C@H](N)C(=O)O
Tests used:
[1] = target: T1, SIRT1 (Homo sapiens, UniProt Q96EB6); experiment: HPLC-based SIRT1 inhibition assay with purified GST-SIRT1; assay type: biochemical
T1 construct: made in house
T1 sequence (Q96EB6 1-747): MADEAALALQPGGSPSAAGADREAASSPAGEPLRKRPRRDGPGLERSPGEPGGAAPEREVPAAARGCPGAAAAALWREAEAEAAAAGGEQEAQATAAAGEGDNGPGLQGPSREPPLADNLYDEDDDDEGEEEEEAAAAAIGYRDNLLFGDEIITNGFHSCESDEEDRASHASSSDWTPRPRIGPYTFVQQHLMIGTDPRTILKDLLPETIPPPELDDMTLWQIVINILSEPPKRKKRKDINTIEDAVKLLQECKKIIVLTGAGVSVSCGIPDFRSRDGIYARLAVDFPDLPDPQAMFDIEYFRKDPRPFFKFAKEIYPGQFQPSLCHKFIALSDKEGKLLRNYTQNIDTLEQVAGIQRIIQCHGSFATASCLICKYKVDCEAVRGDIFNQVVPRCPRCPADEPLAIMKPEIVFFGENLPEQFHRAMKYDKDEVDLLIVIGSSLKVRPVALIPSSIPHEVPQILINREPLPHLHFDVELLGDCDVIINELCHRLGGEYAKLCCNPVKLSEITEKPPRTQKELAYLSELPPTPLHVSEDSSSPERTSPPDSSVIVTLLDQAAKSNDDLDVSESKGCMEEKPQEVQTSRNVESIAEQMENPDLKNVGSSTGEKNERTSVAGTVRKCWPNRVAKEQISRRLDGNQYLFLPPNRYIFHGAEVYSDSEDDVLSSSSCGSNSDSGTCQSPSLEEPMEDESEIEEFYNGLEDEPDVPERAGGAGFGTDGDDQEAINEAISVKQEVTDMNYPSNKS
Procedure: Inhibition assays with purified SIRT1, SIRT2, and SIRT3. GST-SIRT1 that could be produced in a laboratory was used for the SIRT1 inhibition assay. SIRT2 and SIRT3 are obtainable from commercial sources known to those skilled in the art. Consistent HPLC-based assay procedures were used for the inhibition assays with SIRT1, SIRT2, and SIRT3. […] An enzymatic reaction was initiated by the addition of an enzyme at 37° C. and was allowed to be incubated at 37° C.: 10 minutes as follows: for SIRT1 assay, or 60 minutes for SIRT2 and SIRT3 assays. Incubation was quenched at the indicated time with the following stop solution: 100 mM HCl and 0.16 M acetic acid. […] All peptide stock solutions were prepared in ddH2O. IC50 values were estimated from Dixon plots (1/v0 vs. [inhibitor]) as an indication of the inhibition potency.

[2] = target: T2, SIRT2 (Homo sapiens, UniProt Q8IXJ6); experiment: HPLC-based SIRT2 inhibition assay with purified SIRT2; assay type: biochemical; conditions: SIRT2 vs SIRT1
T2 construct: purchased
T2 sequence (Q8IXJ6 1-389): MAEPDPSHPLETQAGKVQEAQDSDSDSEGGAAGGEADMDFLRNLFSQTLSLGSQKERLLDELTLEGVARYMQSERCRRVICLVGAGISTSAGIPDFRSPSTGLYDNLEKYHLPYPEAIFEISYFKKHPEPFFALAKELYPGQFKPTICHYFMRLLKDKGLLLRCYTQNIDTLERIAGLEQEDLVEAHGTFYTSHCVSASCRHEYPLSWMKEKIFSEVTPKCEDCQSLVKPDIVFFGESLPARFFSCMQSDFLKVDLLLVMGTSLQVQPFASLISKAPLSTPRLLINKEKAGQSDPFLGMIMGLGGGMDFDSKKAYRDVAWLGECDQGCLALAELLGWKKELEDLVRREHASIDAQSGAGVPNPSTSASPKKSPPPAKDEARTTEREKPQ
Procedure: (§1) Inhibition assays with purified SIRT1, SIRT2, and SIRT3. GST-SIRT1 that could be produced in a laboratory was used for the SIRT1 inhibition assay. SIRT2 and SIRT3 are obtainable from commercial sources known to those skilled in the art. Consistent HPLC-based assay procedures were used for the inhibition assays with SIRT1, SIRT2, and SIRT3. In brief, an inhibition assay solution had the following components: 25 mM (or 50 mM for SIRT2 assay) Tris.HCl (pH 8.0) 137 mM NaCl, 2.7 mM KCl, 1 mM MgCl2, 1 mg/mL BSA (SIGMA Cat. #A3803 with reduced fatty acid content, for SIRT2 assay only), 0.5 mM β-NAD^+, 0.3 mM peptide substrate (peptide 1b for SIRT1 and SIRT2 assays; peptide 3b for SIRT3 assay), an inhibitor (peptide 1a, 2, or 3a) with varied concentrations including 0, and an enzyme (GST-SIRT1, 0.15 μM; SIRT2, 0.3 μM; or SIRT3, 2.0 μM). […] An enzymatic reaction was initiated by the addition of an enzyme at 37° C. and was allowed to be incubated at 37° C.: 10 minutes as follows: for SIRT1 assay, or 60 minutes for SIRT2 and SIRT3 assays. […] The enzymatic deacetylation products (peptide 1c in SIRT1 and SIRT2 assays; peptide 3c in SIRT3 assay) were confirmed by their comigration with the chemically synthesized authentic samples and by MALDI-TOF mass spectrometric analysis, and were quantified by HPLC peak integration and comparison with those of synthetic authentic samples. […]

[3] = target: T3, HDAC8 (Homo sapiens, UniProt Q9BY41); experiment: HPLC-based assay with purified HDAC8 (de(thio)acetylation of peptides); assay type: biochemical; set-up: key to HDAC8 (sensitive / resistant to HDAC8): +: Sensitive to HDAC8; —: Resistant to HDAC8; conditions: enzymatic dethioacetylation by HDAC8
T3 construct: purchased
T3 sequence (Q9BY41 1-377): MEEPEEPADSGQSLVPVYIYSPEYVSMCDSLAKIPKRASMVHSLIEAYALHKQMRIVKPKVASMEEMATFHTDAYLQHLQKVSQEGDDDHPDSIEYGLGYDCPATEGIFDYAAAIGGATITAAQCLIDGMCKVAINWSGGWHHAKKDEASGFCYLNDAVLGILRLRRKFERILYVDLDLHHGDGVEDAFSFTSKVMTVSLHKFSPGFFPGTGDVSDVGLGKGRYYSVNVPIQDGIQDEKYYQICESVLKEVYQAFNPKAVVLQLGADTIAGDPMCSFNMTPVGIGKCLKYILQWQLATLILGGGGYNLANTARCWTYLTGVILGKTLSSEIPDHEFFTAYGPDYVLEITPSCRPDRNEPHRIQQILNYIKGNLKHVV
Procedure: To test the foregoing premise, peptides 1b, 2, and 3a were allowed to be incubated for 2 hours at room temperature in the HDAC8 assay buffer in a HPLC-based HDAC8 assay. […] FIG. 5 provides representative HPLC chromatograms from HDAC8 assays with peptides 1b, 2, and 3a. All assays were performed in duplicate and essentially the same HPLC chromatograms were obtained for the duplicates. The small peak with tR˜27 minutes in the second chromatogram was from a minor impurity in the purified peptide 2 sample, rather than the dethioacetylated product. The lack of detectable dethioacetylation of peptide 3a was apparent from the absence of a peak with tR˜34 minutes, shown for peptide 3c in the third chromatogram.
Assay with purified HDAC8. The purified HDAC8 could be obtained from a commercial source for use with a HPLC-based HDAC8 assay. In brief, a HDAC8 assay solution had the following components: 25 mM Tris.HCl (pH 8.0), 137 mM NaCl, 2.7 mM KCl, 1 mM MgCl2, 1 mg/mL BSA (SIGMA Cat. #A3803 with reduced fatty acid content), 0.3 mM peptide 1b, 2, or 3a, and 1.5 μM HDAC8. […] An enzymatic reaction was initiated by the addition of HDAC8 at room temperature and was allowed to be incubated at room temperature for 2 hours before being quenched with the following stop solution: 1.0 M HCl and 0.16 M acetic acid. The quenched assay solutions were directly injected into a reversed-phase HPLC C18 column (100 Å, 0.46×25 cm), eluting with the following gradients of ddH2O containing 0.05% (v/v) trifluoroacetic acid (mobile phase A) and acetonitrile containing 0.05% (v/v) trifluoroacetic acid (mobile phase B): linear increase from 0% B to 35% B (for the assay with peptide 2 or 1b) or 40% B (for the assay with peptide 3a or […]) from 0-40 minutes (1 mL/min), and UV monitoring at 214 nm. […] The enzymatically formed peptide 1c was confirmed by its comigration with the chemically synthesized authentic sample and by MALDI-TOF mass spectrometric analysis, and was quantified by HPLC peak integration and comparison with that of synthetic authentic sample.

[4] = target: T4, SIRT3 (Homo sapiens, UniProt Q9NTG7); experiment: HPLC-based SIRT3 inhibition assay with purified SIRT3; assay type: biochemical; conditions: SIRT3 vs SIRT1
T4 construct: purchased
T4 sequence (Q9NTG7 1-399): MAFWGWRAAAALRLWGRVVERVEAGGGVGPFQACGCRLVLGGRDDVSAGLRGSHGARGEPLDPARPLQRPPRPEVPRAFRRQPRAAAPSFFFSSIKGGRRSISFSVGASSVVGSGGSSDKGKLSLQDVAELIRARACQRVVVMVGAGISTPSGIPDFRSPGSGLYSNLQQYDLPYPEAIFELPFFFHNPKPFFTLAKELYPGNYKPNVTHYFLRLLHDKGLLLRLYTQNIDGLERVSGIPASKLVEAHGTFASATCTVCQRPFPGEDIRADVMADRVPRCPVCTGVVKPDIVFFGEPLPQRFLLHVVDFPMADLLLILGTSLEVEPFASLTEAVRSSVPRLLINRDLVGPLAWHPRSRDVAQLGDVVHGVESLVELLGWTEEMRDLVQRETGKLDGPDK
Procedure: as §1

[5] = system: SIRT1, SIRT2, and SIRT3; experiment: Dethioacetylation of inhibitor peptides under the sirtuin inhibition assay conditions; assay type: biochemical, human; conditions: same assay conditions as SIRT1/SIRT2/SIRT3 inhibition assays
Procedure: Inhibition assays with purified SIRT1, SIRT2, and SIRT3. GST-SIRT1 that could be produced in a laboratory was used for the SIRT1 inhibition assay. SIRT2 and SIRT3 are obtainable from commercial sources known to those skilled in the art. Consistent HPLC-based assay procedures were used for the inhibition assays with SIRT1, SIRT2, and SIRT3. In brief, an inhibition assay solution had the following components: 25 mM (or 50 mM for SIRT2 assay) Tris.HCl (pH 8.0) 137 mM NaCl, 2.7 mM KCl, 1 mM MgCl2, 1 mg/mL BSA (SIGMA Cat. #A3803 with reduced fatty acid content, for SIRT2 assay only), 0.5 mM β-NAD^+, 0.3 mM peptide substrate (peptide 1b for SIRT1 and SIRT2 assays; peptide 3b for SIRT3 assay), an inhibitor (peptide 1a, 2, or 3a) with varied concentrations including 0, and an enzyme (GST-SIRT1, 0.15 μM; SIRT2, 0.3 μM; or SIRT3, 2.0 μM). […] An enzymatic reaction was initiated by the addition of an enzyme at 37° C. and was allowed to be incubated at 37° C.: 10 minutes as follows: for SIRT1 assay, or 60 minutes for SIRT2 and SIRT3 assays. Incubation was quenched at the indicated time with the following stop solution: 100 mM HCl and 0.16 M acetic acid. The conversion of the limiting substrate to the product was maintained at ≦12%. The quenched assay solutions were directly injected into a reversed-phase HPLC C18 column (100 Å, 0.46×25 cm), eluting with the following gradients of ddH2O containing 0.05% (v/v) trifluoroacetic acid (mobile phase A) and acetonitrile containing 0.05% (v/v) trifluoroacetic acid (mobile phase B): linear increase from 0% B to 35% B (for SIRT1 assay) or 40% B (for SIRT2 and SIRT3 assays) from 0-40 minutes (1 mL/min), and UV monitoring at 214 nm. The enzymatic deacetylation products (peptide 1c in SIRT1 and SIRT2 assays; peptide 3c in SIRT3 assay) were confirmed by their comigration with the chemically synthesized authentic samples and by MALDI-TOF mass spectrometric analysis, and were quantified by HPLC peak integration and comparison with those of synthetic authentic samples. […] All peptide stock solutions were prepared in ddH2O. […]

[6] = target: T3, HDAC8; conditions: inventors' earlier work, Fatkins et al.; cited from earlier work

**Q.** With `CC(=S)NCCCC[C@H](NC(=O)OCC1c2ccccc2-c2ccccc21)C(=O)O` [N^α-Fmoc-N^ε-thioacetyl-lysine, L-N^α-Fmoc-N^ε-thioacetyl-lysine] as the compound, how does the “IC25 for SIRT1” value ([1]; concentration to achieve 25% inhibition) read?
**A.** Its value is 2,000 uM.

**Q.** And the “IC25 SIRT1” value ([1]; concentration to achieve 25% inhibition, 0.5 mM β-NAD+, 0.3 mM peptide substrate)?
**A.** Its value is 2,000 (IC25) μM.

**Q.** Which “SIRT1 inhibition at 2 mM” value [1] does the source give for `CC(=O)N[C@@H](CCCCNC(C)=S)C(=O)O` [N^α-acetyl-N^ε-thioacetyl-lysine, L-N^α-acetyl-N^ε-thioacetyl-lysine] here?
**A.** The value was “No inhibition”.

**Q.** What about the “SIRT1 inhibition at 2 mM” value ([1]; listed as L-N^α-acetyl-N^ε-thioacetyl-lysine) of the same compound?
**A.** Its value is “did not exhibit any SIRT1 inhibition”.

**Q.** Which results are given for `CSCC[C@H](NC(=O)[C@H](CC(C)C)NC(=O)[C@H](CCCCNC(C)=S)NC(=O)[C@H](CCCCN)NC(=O)[C@H](Cc1c[nH]cn1)NC(=O)[C@H](CCCNC(=N)N)NC(=O)[C@H](CO)NC(=O)[C@@H](NC(=O)[C@H](CO)NC(=O)[C@H](CCC(N)=O)NC(=O)CNC(=O)[C@H](CCCCN)NC(=O)[C@@H](N)CCCCN)[C@@H](C)O)C(=O)N[C@@H](Cc1ccccc1)C(=O)N[C@@H](CCCCN)C(=O)N[C@H](C(=O)N[C@@H](CCC(=O)O)C(=O)NCC(=O)O)[C@@H](C)O` [Peptide 1a]?
**A.** inhibition potency against SIRT2 relative to that against SIRT1 [2]: comparable inhibition potency; HDAC8 (sensitive / resistant to HDAC8) [3]: +^c; inhibition potency weaker against SIRT3 than against SIRT1 [4]: approximately 35 fold; formation of dethioacetylated peptide under sirtuin inhibition assay conditions [5]: did not give rise to detectable formation; de(thio)acetylation by HDAC8 (previously demonstrated) [6]: comparably de(thio)acetylated by HDAC8

**Q.** Which “decrease in SIRT1 inhibition potency following truncation of peptide 1a” value ([1]; vs peptide 1a) does the source give for `CSCC[C@H](NC(=O)[C@H](CC(C)C)NC(=O)[C@H](CCCCNC(C)=S)NC(=O)[C@H](CCCCN)NC(=O)[C@@H](N)Cc1c[nH]cn1)C(=O)O` [Peptide 4] (H-HK[Lys(Thioacetyl)]LM-OH) here?
**A.** The value was “approximately 6 fold”.

**Q.** Which IC50 [1] does the source give for `CSCC[C@H](NC(=O)[C@H](CC(C)C)NC(=O)[C@H](CCCCNC(C)=S)NC(=O)[C@H](CCCCN)NC(=O)[C@@H](N)Cc1cnc[nH]1)C(=O)O` [Peptide 4] (H-HK[Lys(Thioacetyl)]LM-OH) here?
**A.** Its IC50 is 10.4 ± 0.3 µM.

— patent US20080287653A1, “METHOD FOR PRODUCING INHIBITORS AND INHIBITORS FORMED THEREFROM” (THE UNIVERSITY OF AKRON, priority 2007, published 2008)
